Results reported in ChEMBL document CHEMBL1201862, “PubChem BioAssay data set” (2004).
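Where inhibition never reached the appropriate level, the endpoint shown equals the highest concentration tested. Otherwise, values were interpolated linearly from a five-concentration, 48-hour dose response in 96-well plates. Abbreviation: GI50, concentration required for 50% inhibition of growth.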 Activity calls are given as the source filed them. No stated cut-off is given here; in the data, active = GI50 up to about 1.1 µM and inactive = higher.

Experiments:
Assay in all cases: inhibition of tumour cell growth, NCI panel, 48 h
A549 = test system: A549
COLO 205 = test system: COLO 205
DMS-114 = test system: DMS-114
DMS-273 = test system: DMS-273
HCC 2998 = test system: HCC 2998
HOP-18 = test system: HOP-18
LXFL 529 = test system: LXFL 529
NCI-H23 = test system: NCI-H23
NCI-H460 = test system: NCI-H460
RPMI-8226 = test system: RPMI-8226
RXF 393 = test system: RXF 393
SF-539 = test system: SF-539
SR = test system: SR
TK-10 = test system: TK-10
SF-295 = test system: SF-295
SNB-78 = test system: SNB-78
XF498 = test system: XF498
DU-145 = test system: DU-145
MCF7 = test system: MCF7
NCI/ADR-RES = test system: NCI/ADR-RES

Measured: GI50

COc1ccc(C[C@H](N)C(=O)N2C[C@H](CO)C[C@H](n3cnc4c(N(C)C)ncnc43)C2)cc1
inactive: A549 > 100 µM | COLO 205 > 100 µM | DMS-114 > 100 µM | DMS-273 > 100 µM | HCC 2998 > 100 µM | HOP-18 45.7 µM | LXFL 529 > 100 µM | NCI-H23 > 100 µM | NCI-H460 > 100 µM | RPMI-8226 > 100 µM | RXF 393 > 100 µM | SF-539 > 100 µM | SR > 100 µM | TK-10 > 100 µM

O=c1[nH]c(=O)n(C2CC(O)C(CO)O2)cc1C#Cc1cc(C(F)(F)F)cc(C(F)(F)F)c1 (stereo not given)
inactive: A549 > 24.7 µM | COLO 205 > 21.3 µM | DMS-114 > 31.2 µM | HCC 2998 > 32 µM | LXFL 529 > 30.1 µM | NCI-H23 24.4 µM | RPMI-8226 > 29.6 µM | RXF 393 8.87 µM | SF-295 17.3 µM | SF-539 26.5 µM | SNB-78 50.7 µM | SR > 100 µM | TK-10 > 100 µM | XF498 21 µM

CC(=O)N1N=C(c2ccc3ccccc3c2O)CC1c1cccs1 (stereo not given)
inactive: A549 13.9 µM | COLO 205 20.2 µM | DU-145 34 µM | HCC 2998 21.6 µM | MCF7 10.9 µM | NCI-H23 20.3 µM | NCI-H460 8.49 µM | NCI/ADR-RES 13.6 µM | RPMI-8226 6.55 µM | RXF 393 15.7 µM | SF-295 21.7 µM | SF-539 22.2 µM | SR 3.6 µM | TK-10 25 µM

COC1C(=[N+]=[N-])C(=O)NC(=O)N1C1OC(COC(c2ccccc2)(c2ccccc2)c2ccccc2)C(O)C1O (stereo not given)
inactive: A549 17.5 µM | COLO 205 19.6 µM | HCC 2998 18.4 µM | HOP-18 21.1 µM | LXFL 529 17.6 µM | NCI-H23 18.2 µM | NCI-H460 25.4 µM | RPMI-8226 25.2 µM | SF-295 18 µM | SF-539 19.9 µM | SNB-78 18 µM

NC12CCC(CC1=O)C2 (stereo not given)
inactive: A549 > 100 µM | COLO 205 > 100 µM | DU-145 > 100 µM | HCC 2998 > 100 µM | MCF7 > 100 µM | NCI-H23 > 100 µM | NCI/ADR-RES > 100 µM | RPMI-8226 > 100 µM | SF-295 > 100 µM | SF-539 > 100 µM | SR > 100 µM | TK-10 > 100 µM

O=C1CSC(C(/N=N/c2ccc(Cl)cc2)c2nc3ccccc3[nH]2)=N1 (stereo not given)
inactive: A549 > 100 µM | COLO 205 > 100 µM | DMS-114 26.2 µM | DMS-273 60.4 µM | HCC 2998 25.6 µM | LXFL 529 52.6 µM | NCI-H23 63 µM | NCI-H460 33 µM | RPMI-8226 > 100 µM | SF-295 38.8 µM | SF-539 23.4 µM | SR 76.4 µM | TK-10 > 100 µM | XF498 17.8 µM

O=NN1C(c2ccccc2)CNC(=O)CC1c1ccccc1 (stereo not given)
inactive: A549 44.5 µM | COLO 205 25.8 µM | DMS-114 22.7 µM | DMS-273 27.4 µM | HCC 2998 27.3 µM | HOP-18 > 100 µM | MCF7 24.9 µM | NCI-H23 33.1 µM | NCI-H460 36.2 µM | NCI/ADR-RES 28.7 µM | RPMI-8226 34 µM | RXF 393 22.2 µM | SF-295 32.7 µM | SF-539 35.4 µM | SNB-78 > 91.4 µM

O=C1CCCCN1
inactive: A549 > 1120 µM | COLO 205 > 1120 µM | DMS-114 > 1120 µM | DMS-273 > 1120 µM | HCC 2998 333 µM | HOP-18 232 µM | MCF7 > 1120 µM | NCI-H23 > 1120 µM | NCI-H460 > 1120 µM | NCI/ADR-RES 248 µM | RPMI-8226 > 1120 µM | RXF 393 272 µM | SF-295 > 1120 µM | SF-539 > 1120 µM | SNB-78 > 1120 µM | XF498 89.3 µM
